Key:
[1] = tested on: PI-IBS rats; assay: EMG recording: visceral motor response to graded colorectal distension (CRD); format: in vivo, rat
Description: Sprague-Dawley male rats (Laboratory Animal Services Centre, The Chinese University of Hong Kong) aged 6 weeks with body weight around 220 g are used to develop PI-IBS model. Briefly, rats are fasted for 24 h, and deeply anesthetized with chloral hydrate (350 mg.kg^−1, i.p.). After induction of colitis by 2,4,6-trinitrobenzenesulfonic acid solution (TNBS, 5 mg/0.8 ml/rat, in 50% ethanol, 8 cm from anus) administration, the rats are allowed to recover for at least 4 weeks before use. The control rats are similarly administered with 0.8 ml saline instead of TNBS. Only the rats that have completely recovered from the initial inflammation and acquired visceral hypersensitivity are used as the PI-IBS rats.
6 groups of 12 rats are tested. Normal rats (Group 1) are treated with water. PI-IBS rats are randomly divided into 5 groups and orally treated with water (Group 2), Doxantrazole (mast cell stabilizer, 30 mg/kg/d, Group 3), and Quercetin (Group 4-6) at the dose of 5, 10, and 20 mg/kg/d, respectively. After 2 weeks daily drug administration, 5 rats in each group are used to measure pain threshold pressure by abdominal withdrawal reflex (AWR) test, and the remaining […] is used for electromyography (EMG) recording.
AWR test is performed as previously described in Al-Chaer E D, Kawasaki M, Pasricha P J. A new model of chronic visceral hypersensitivity in adult rats induced by colon irritation during postnatal development. Gastroenterology. 2000 November; 119(5):1276-85. Briefly, rats are lightly anesthetized with ether; a latex balloon is inserted into the descending colon. Rats are then allowed to recover for about 1 h. The tube of the balloon is connected via a Y-connector to a sphygmomanometer and colorectal distension is applied in increments of 5 mmHg until a visible contraction of the abdominal wall is observed by an investigator blinded to the treatment. The pain threshold pressure is defined as the intensity of colorectal distension (CRD) that elicited an observable AWR, i.e. a sudden and persistent abdominal muscle contraction with abdomen lift off the platform. The pain threshold pressure of all groups is recorded and repeated five times with intervals of at least 5 minutes for recovery. EMG recording are conducted as previously described in Tammpere A, Brusberg M, Axenborg J, Hirsch I, Larsson H, Lindstrom E. Evaluation of pseudo-affective responses to noxious colorectal distension in rats by manometric recordings. Pain. 2005 August; 116(3):220-6 and Li Z, Zhang X J, Xu H X, Sung J J, Bian Z X. Intracolonical administration of protease-activated receptor-2 agonists produced visceral hyperalgesia by up-regulating serotonin in the colon of rats. Eur J. Pharmacol. 2009 Mar. 15; 606(1-3):199-204. Firstly, a surgical operation is made to implant the electrodes into the left external abdominal oblique muscles 7 days before EMG recording. After the last drug administration, a flexible latex balloon is inserted into the rat descending colon, and the rats are allowed to accommodate for 1 h. CRD is initiated, and the EMG signal is amplified and filtered by Power Lab System. Graded colorectal distension (20, 40, 60, and 80 mmHg; 20 s duration; 2 min inter-stimulus interval) is carried out for total three cycles to each rat. The changes of area under the curve (AUC) are calculated using that during 20 s distension period over the 20 s baseline.

[2] = tested on: PI-IBS rats; assay: Mechanical stimuli (CRD)-induced 5-HT release: colonic 5-HT content with or without CRD; format: in vivo, rat; details: for 5-HT content of tissue, +CRD: after CRD; for 5-HT content of tissue, -CRD: without CRD; for Decrease of colon tissue 5-HT content after CRD application: not significant
Description: (§1) 5-HT content in the colon tissue is assayed based on our previously reported procedure in Qi S D, Tian S L, Xu H X, Sung J J, Bian Z X. Quantification of luminally released serotonin in rat proximal colon by capillary electrophoresis with laser-induced fluorescence detection. Anal Bioanal Chem. 2009 April; 393(8):2059-66. Briefly, the colon segment is homogenized in 15% iced trichloroacetic acid; for 2 min and stored at 4° C. for 2 h. After centrifuge at 10,000 G for 15 min, the supernatant of each sample is filtered using 0.22 μm filters and extracted with diethyl ether for five times to remove the trichloroacetic acid. The prepared samples are added to derivatization solution (150 mM sodium tetraborate, 25% acetonitrile, 2 mM CFSE) and incubated for […] in dark at room temperature. The 5-HT content is analyzed by capillary electrophoresis with laser-induced fluorescence detection and expressed as nanogram per milligram (wet weight of tissue).
To determine whether mechanical stimuli (CRD) can induce colonic 5-HT release in PI-IBS rats, and whether Quercetin has effect on it, 5-HT content in colonic tissue is evaluated in rats with or without AWR test. The colon tissues for 5-HT content determination are collected from the rats from Example 1 and Example 2, and the methods for 5-HT content determination are followed as described in Example 2.

[3] = tested on: normal rats; assay: Colonic 5-HT content in normal rats; format: in vivo, rat; details: 10 mg/kg i.g., 14 days
Description: as §1
To identify whether the effects of Quercerin in PI-IBS rats are specific, pain threshold pressure, colonic EC cell number and 5-HT content are further evaluated in normal rats treated with Quercetin. […] After the final drug administration, pain threshold pressure, colonic EC cell density and 5-HT content are evaluated and the methods used here are as same as that shown in above experiments.

[4] = tested on: cyclin B1; assay: Western blot of cyclin B1 in QGP-1 cells; format: cell-based, human; details: QGP-1, 50-100 μM, 24 h
Description: (§2) After drug treatment, the cells are lysed and centrifuged to collect the protein extract After determination of protein content, the samples protein are denatured at 100° C. for 5 min Proteins are separated by 10-12% SDS-PAGE and transferred to PVDF membranes (Bio-Rad, CA). After blocking with 5% nonfat milk for 1 h at room temperature, the membranes are incubated overnight at 4° C. with primary antibodies (mouse anti-cyclin BE 1:500, Abcam; goat anti-p-Cdc2:1:500, Santa Cruz; mouse anti-p21: 1:500, BD Bioscience). After washing three times in TBST, the membranes where incubated with the appropriate secondary antibodies (1:2000, Invitrogen) for 1 h at room temperature. The immunoreaction is detected using ECL Western blotting kit (ECL, Amersham, UK). Bands are visualized on Biomax X-ray film, and optical density of each band is semi-quantified by software (Image J.NIH). In order to adjust for any variations in loading, all detected protein bands are normalized to β-actin levels.

[5] = tested on: p-Cdc-2; assay: Western blot of p-Cdc-2 in QGP-1 cells; format: cell-based, human; details: QGP-1, 50-100 μM, 24 h
Description: as §2

## O=c1c(O)c(-c2ccc(O)c(O)c2)oc2cc(O)cc(O)c12 [Quercetin, 2-(3,4-dihydroxyphenyl)-3,5,7-trihydroxy-4H-chromen-4-one]
[1]; 5 mg/kg i.g., 20 mmHg
  AUC value under graded distension pressures (EMG): 161.22 ± 41.53
[1]; 5 mg/kg i.g., 40 mmHg
  AUC value under graded distension pressures (EMG): 463.55 ± 12.42
[1]; 5 mg/kg i.g., 60 mmHg
  AUC value under graded distension pressures (EMG): 586.42 ± 56.68
[1]; 5 mg/kg i.g., 80 mmHg
  AUC value under graded distension pressures (EMG): 906.84 ± 41.08
[1]; 10 mg/kg i.g., 20 mmHg
  AUC value under graded distension pressures (EMG): 124.61 ± 67.68
[1]; 10 mg/kg i.g., 40 mmHg
  AUC value under graded distension pressures (EMG): 386.85 ± 65.68
[1]; 10 mg/kg i.g., 60 mmHg
  AUC value under graded distension pressures (EMG): 530.98 ± 21.08
[1]; 10 mg/kg i.g., 80 mmHg
  AUC value under graded distension pressures (EMG): 842.34 ± 62.92
[1]; 20 mg/kg i.g., 20 mmHg
  AUC value under graded distension pressures (EMG): 88.28 ± 43.43
[1]; 20 mg/kg i.g., 40 mmHg
  AUC value under graded distension pressures (EMG): 319.78 ± 118.03
[1]; 20 mg/kg i.g., 60 mmHg
  AUC value under graded distension pressures (EMG): 470.73 ± 173.52
[1]; 20 mg/kg i.g., 80 mmHg
  AUC value under graded distension pressures (EMG): 725.28 ± 192.44
[2]; 5 mg/kg i.g.
  5-HT content of tissue, +CRD: 4.96 ± 0.91^ ng/mg
  5-HT content of tissue, -CRD: 5.15 ± 0.58 ng/mg
[2]; 10 mg/kg i.g.
  5-HT content of tissue, +CRD: 4.29 ± 0.58^ ng/mg
  5-HT content of tissue, -CRD: 4.63 ± 0.92 ng/mg
[2]; 20 mg/kg i.g.
  5-HT content of tissue, +CRD: 4.01 ± 1.14 ng/mg
  5-HT content of tissue, -CRD: 5.50 ± 0.65^ ng/mg
[2]; low dose
  Decrease of colon tissue 5-HT content after CRD application: ~3.67%
[2]; median dose
  Decrease of colon tissue 5-HT content after CRD application: ~7.34%
[3]
  5-HT content: 4.06 ± 0.48 ng/mg
[4]
  Protein level of cyclin B1: significantly decrease
[5]
  Protein level of p-Cdc-2: significantly decrease

From patent US20130210907A1, “METHOD FOR PREVENTING OR TREATING ENTEROCHROMAFFIN CELL HYPERPLASIA-RELATED DISEASES BY QUERCETIN ADMINISTRATION” (HONG KONG BAPTIST UNIVERSITY, priority 2012, published 2013)
